Patent US11666640B2, “Glucose oxidase compositions as a neonate anticonvulsant” (PENN STATE RESEARCH FOUNDATION, priority 2018, dated 2023)
“Also recorded” adds a separate entry of the source.

Tests used:
GABAA-R current = GABAA-R current induced by isoguvacine before and after membrane depolarization (gramicidin-perforated recording); format: cell-based, mouse; conditions: isoguvacine 100 μM; depolarization 40 mV, 10 s; NaGcA 20 mM
Method: To investigate the effect of such long-lasting epileptiform bursts on GABA function, gramicidin-perforated whole-cell recordings were performed to keep the intracellular Cl− intact in neonatal animals. GABAA receptor (GABAA-R) currents induced by the receptor agonist isoguvacine (100 μM, 50 ms) before and after a membrane-depolarizing shift (40 mV for 10 s) that mimics the epileptiform burst activity. […] FIGS. 16B and 16C.

[1] = tested on: sodium, potassium or calcium channels; assay: Na+, K+ and Ca2+ currents in cultured cortical neurons; format: cell-based, mouse; conditions: 10 mM NaGcA; sodium salt
From the text: Experiments were designed to answer the question as to what is/are the molecular target(s) of gluconate. Ion channel regulation was first investigated where a comparison of NaGcA on sodium, potassium or calcium channels was made. […] See, FIGS. 2A-2F. Although it is not necessary to understand the mechanism of an invention, it is believed that since gluconic acid is an organic anion, it might affect neuronal anion channels.

cultured neurons = assay: LIVE/DEAD viability assay, kainic acid (KA)-induced cell death model; format: cell-based, mouse; conditions: sodium salt
From the text: Epileptic activity may induce cell death both in epileptic patients and animal models. Chen et al., “Differential roles of NR2A- and NR2B-containing NMDA receptors in activity-dependent brain-derived neurotrophic factor gene regulation and limbic epileptogenesis” The Journal Of Neuroscience: the official journal of the Society for Neuroscience 27:542-552 (2007); and Naseer et al., “Maternal epileptic seizure induced by pentylenetetrazol: apoptotic neurodegeneration and decreased GABAB1 receptor expression in prenatal rat brain” Molecular Brain 2:20 (2009). […] Wu et al., “Protective effect of resveratrol against kainate-induced temporal lobe epilepsy in rats” Neurochemical Research 34:1393-1400 (2009). In a control group, most neurons appeared to be healthy in morphology and were stained by calcein (green, live) but not ethidium homodimer-1 (EthD-1, red, death). See, FIG. 1J, left. […]
A LIVE/DEAD® Viability/Cytotoxicity Assay Kit (L3224, Life Technologies) containing ethidium homodimer-1 and calcein-AM was used to examine cell viability. Ethidium homodimer-1 binds to cellular DNA and typically labels dead cells in red fluorescence, while Calcein-AM can be cleaved by esterases in live cells to give strong green fluorescence. […] Cell survival and death rate were measured by quantifying the percentage of green and red fluorescent cells, respectively. […]

CLC-3 channels = target: T1, CLC-3 channels (Rattus norvegicus, UniProt P51792); assay: Whole-cell Cl− currents in CLC-3-transfected HEK293T cells; format: cell-based
T1 construct: host or cells: HEK293T
T1 sequence (P51792 1-760 isoform P51792-2): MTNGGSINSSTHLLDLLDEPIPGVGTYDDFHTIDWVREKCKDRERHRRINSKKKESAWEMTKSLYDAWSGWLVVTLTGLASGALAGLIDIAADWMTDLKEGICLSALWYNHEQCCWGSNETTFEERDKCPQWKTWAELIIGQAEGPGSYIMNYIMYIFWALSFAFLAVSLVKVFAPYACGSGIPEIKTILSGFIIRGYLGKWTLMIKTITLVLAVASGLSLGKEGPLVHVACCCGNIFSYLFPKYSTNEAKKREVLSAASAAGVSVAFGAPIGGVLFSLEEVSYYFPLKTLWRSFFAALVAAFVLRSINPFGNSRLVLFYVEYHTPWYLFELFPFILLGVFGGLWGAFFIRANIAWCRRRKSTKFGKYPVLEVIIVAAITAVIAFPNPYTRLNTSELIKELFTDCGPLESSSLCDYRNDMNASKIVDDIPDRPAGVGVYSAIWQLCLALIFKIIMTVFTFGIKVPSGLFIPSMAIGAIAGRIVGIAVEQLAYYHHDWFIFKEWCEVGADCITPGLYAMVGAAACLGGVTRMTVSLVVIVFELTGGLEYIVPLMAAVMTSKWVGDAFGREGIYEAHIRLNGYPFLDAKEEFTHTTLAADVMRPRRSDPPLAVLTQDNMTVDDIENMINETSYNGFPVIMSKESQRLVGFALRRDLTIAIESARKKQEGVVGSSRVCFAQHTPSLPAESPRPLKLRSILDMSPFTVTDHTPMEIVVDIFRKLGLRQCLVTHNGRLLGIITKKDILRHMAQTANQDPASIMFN

Question: What does the source list for `O=C([O-])[C@H](O)[C@@H](O)[C@H](O)[C@H](O)CO.[Na+]` [NaGcA, D-gluconic acid sodium salt]?
Answer: depolarization-induced enhancement of GABAA-R current (GABAA-R current): strongly inhibited; Na+, K+ and Ca2+ currents [1]: no significant changes; also recorded: no effect; KA-induced neuronal death (cultured neurons; 10 μM KA for 24 hrs, co-application of 20 mM NaGcA): abolished; also recorded: neuron protection function; neuron survival rate, NaGcA alone (cultured neurons; 20 mM NaGcA alone): no side effect; also recorded: without any side effect; CLC-3-mediated Cl− currents (CLC-3 channels; 20 mM NaGcA, at +90 mV): 544±59 pA; CLC-3 channel-mediated Cl− currents (inhibition) (CLC-3 channels; 20 mM NaGcA, sodium salt): significantly inhibited; also recorded: significantly reduced; CLC-3-mediated Cl− currents after washout of NaGcA (CLC-3 channels; after washout, at +90 mV): 925±124 pA
